# Experiments:
# [1] = Volume of distribution in Macaca mulatta (Rhesus monkey) at 4 mg/kg, iv; format: ADME, organism-based; design: dose 4 mg/kg, route intravenous; details: in vivo
# Rattus norvegicus [2] = experiment: Dose normalized AUC in Rattus norvegicus Sprague-Dawley (rat) at 30 mg/kg, po; format: ADME, organism-based; design: dose 30 mg/kg, route oral; details: in vivo
# [3] = Cmax in Rattus norvegicus Sprague-Dawley (rat) at 9 mg/kg, administered intramuscularly; format: ADME, organism-based; design: dose 9 mg/kg, route intramuscular; details: in vivo, im
# [4] = AUC (0 to infinity) in Rattus norvegicus Sprague-Dawley (rat) at 9 mg/kg, administered intramuscularly; format: ADME, organism-based, Plasma; design: time infinity, dose 9 mg/kg, route intramuscular; details: Sprague-Dawley, plasma, im
# [5] = Tmax in Macaca mulatta (Rhesus monkey) at 50 mg/kg, po; format: ADME, organism-based; design: dose 50 mg/kg, route oral; details: in vivo
# [6] = Clearance in Rattus norvegicus Sprague-Dawley (rat) at 2 mg/kg, iv; format: ADME, organism-based; design: dose 2 mg/kg, route intravenous; details: Sprague-Dawley, in vivo
# [7] = Cmax in Macaca mulatta (Rhesus monkey) at 7.5 mg/kg, administered intramuscularly; format: ADME, organism-based; design: dose 7.5 mg/kg, route intramuscular; details: in vivo, im
# Rattus norvegicus [8] = experiment: Dose normalized AUC in Rattus norvegicus Sprague-Dawley (rat) at 9 mg/kg, administered intramuscularly; format: ADME, organism-based; design: dose 9 mg/kg, route intramuscular; details: in vivo, im
# [9] = Volume of distribution in Rattus norvegicus Sprague-Dawley (rat) at 2 mg/kg, iv; format: ADME, organism-based; design: dose 2 mg/kg, route intravenous; details: in vivo
# [10] = Tmax in Rattus norvegicus Sprague-Dawley (rat) at 17.5 mg/kg, po; format: ADME, organism-based; design: dose 17.5 mg/kg, route oral; details: in vivo
# [11] = Elimination half life in Rattus norvegicus Sprague-Dawley (rat) at 17.5 mg/kg, po; format: ADME, organism-based; design: dose 17.5 mg/kg, route oral; details: in vivo, read-out: beta t1/2 (converted)
# [12] = Elimination half life in Rattus norvegicus Sprague-Dawley (rat) at 30 mg/kg, po; format: ADME, organism-based; design: dose 30 mg/kg, route oral; details: in vivo, read-out: beta t1/2 (converted)
# [13] = Mean residence time in Homo sapiens (human) at 150 mg; format: ADME, organism-based; details: in vivo
# [14] = Clearance in Macaca mulatta (Rhesus monkey) at 7.5 mg/kg, administered intramuscularly; format: ADME, organism-based; design: dose 7.5 mg/kg, route intramuscular; details: in vivo, im
# [15] = AUC (0 to infinity) in Rattus norvegicus Sprague-Dawley (rat) at 17.5 mg/kg, administered intramuscularly; format: ADME, organism-based, Plasma; design: dose 17.5 mg/kg, route intramuscular, time infinity; details: Sprague-Dawley, plasma, im
# Rhesus monkey [16] = experiment: Dose normalized AUC in Macaca mulatta (Rhesus monkey) at 4 mg/kg, iv; format: ADME, organism-based; design: dose 4 mg/kg, route intravenous; details: in vivo
# Rattus norvegicus [17] = experiment: Dose normalized AUC in Rattus norvegicus Sprague-Dawley (rat) at 9 mg/kg, po; format: ADME, organism-based; design: dose 9 mg/kg, route oral; details: in vivo
# [18] = Cmax in Homo sapiens (human) at 150 mg; format: ADME, organism-based; design: dose 150 mg; details: in vivo
# [19] = AUC (0 to infinity) in Rattus norvegicus Sprague-Dawley (rat) at 30 mg/kg, po; format: ADME, organism-based, Plasma; design: time infinity, dose 30 mg/kg, route oral; details: Sprague-Dawley, plasma
# Rattus norvegicus [20] = experiment: Dose normalized AUC in Rattus norvegicus Sprague-Dawley (rat) at 30 mg/kg, administered intramuscularly; format: ADME, organism-based; design: dose 30 mg/kg, route intramuscular; details: in vivo, im
# [21] = Elimination half life in Macaca mulatta (Rhesus monkey) at 4 mg/kg, iv; format: ADME, organism-based; design: dose 4 mg/kg, route intravenous; details: in vivo, read-out: beta t1/2 (converted)
# [22] = Clearance in Macaca mulatta (Rhesus monkey) at 4 mg/kg, iv; format: ADME, organism-based; design: dose 4 mg/kg, route intravenous; details: in vivo
# [23] = Tmax in Rattus norvegicus Sprague-Dawley (rat) at 17.5 mg/kg, administered intramuscularly; format: ADME, organism-based; design: dose 17.5 mg/kg, route intramuscular; details: in vivo, im
# [24] = Elimination half life in Macaca mulatta (Rhesus monkey) at 7.5 mg/kg, administered intramuscularly; format: ADME, organism-based; design: dose 7.5 mg/kg, route intramuscular; details: in vivo, im, read-out: beta t1/2 (converted)
# [25] = AUC (0 to infinity) in Rattus norvegicus Sprague-Dawley (rat) at 2 mg/kg, iv; format: ADME, organism-based, Plasma; design: time infinity, dose 2 mg/kg, route intravenous; details: Sprague-Dawley, plasma
# [26] = Clearance in Rattus norvegicus Sprague-Dawley (rat) at 17.5 mg/kg, po; format: ADME, organism-based; design: dose 17.5 mg/kg, route oral; details: Sprague-Dawley, in vivo
# Rhesus monkey [27] = experiment: Dose normalized AUC in Macaca mulatta (Rhesus monkey) at 50 mg/kg, po; format: ADME, organism-based; design: dose 50 mg/kg, route oral; details: in vivo
# [28] = Mean residence time in Macaca mulatta (Rhesus monkey) at 7.5 mg/kg, administered intramuscularly; format: ADME, organism-based; design: dose 7.5 mg/kg, route intramuscular; details: in vivo, im
# [29] = Cmax in Macaca mulatta (Rhesus monkey) at 50 mg/kg, po; format: ADME, organism-based; design: dose 50 mg/kg, route oral; details: in vivo
# [30] = Cmax in Rattus norvegicus Sprague-Dawley (rat) at 17.5 mg/kg, administered intramuscularly; format: ADME, organism-based; design: dose 17.5 mg/kg, route intramuscular; details: in vivo, im
# [31] = AUC (0 to infinity) in Rattus norvegicus Sprague-Dawley (rat) at 17.5 mg/kg, po; format: ADME, organism-based, Plasma; design: time infinity, dose 17.5 mg/kg, route oral; details: Sprague-Dawley, plasma
# [32] = Elimination half life in Macaca mulatta (Rhesus monkey) at 50 mg/kg, po; format: ADME, organism-based; design: dose 50 mg/kg, route oral; details: in vivo, read-out: beta t1/2 (converted)
# Rattus norvegicus [33] = experiment: Volume of distribution in Rattus norvegicus Sprague-Dawley (rat) at 17.5 mg/kg, administered intramuscularly; format: ADME, organism-based; design: dose 17.5 mg/kg, route intramuscular; details: in vivo, im
# Rhesus monkey [34] = experiment: Volume of distribution in Macaca mulatta (Rhesus monkey) at 7.5 mg/kg, administered intramuscularly; format: ADME, organism-based; design: dose 7.5 mg/kg, route intramuscular; details: in vivo, im
# [35] = Tmax in Macaca mulatta (Rhesus monkey) at 7.5 mg/kg, administered intramuscularly; format: ADME, organism-based; design: dose 7.5 mg/kg, route intramuscular; details: in vivo, im
# [36] = Cmax in Rattus norvegicus Sprague-Dawley (rat) at 30 mg/kg, administered intramuscularly; format: ADME, organism-based; design: dose 30 mg/kg, route intramuscular; details: in vivo, im
# [37] = Mean residence time in Rattus norvegicus Sprague-Dawley (rat) at 30 mg/kg, po; format: ADME, organism-based; design: dose 30 mg/kg, route oral; details: in vivo
# [38] = Mean residence time in Rattus norvegicus Sprague-Dawley (rat) at 17.5 mg/kg, po; format: ADME, organism-based; design: dose 17.5 mg/kg, route oral; details: in vivo
# [39] = Clearance in Rattus norvegicus Sprague-Dawley (rat) at 9 mg/kg, po; format: ADME, organism-based; design: dose 9 mg/kg, route oral; details: Sprague-Dawley, in vivo
# [40] = Mean residence time in Rattus norvegicus Sprague-Dawley (rat) at 9 mg/kg, po; format: ADME, organism-based; design: dose 9 mg/kg, route oral; details: in vivo
compound,measurement,setting,value
CCO[C@H]1O[C@@H]2O[C@@]3(C)CC[C@H]4[C@H](C)CC[C@@H]([C@H]1C)[C@@]24OO3 [ARTEMOTIL],Vd,[1],8.6 L/kg
same,AUC/dose,Rattus norvegicus [2],1.2 ng·h/mL
same,Cmax,[3],39.8 ng/mL
same,AUC(0-inf),[4],1180 ng·h/mL
same,Tmax,[5],0.583 h
same,clearance,[6],127 mL/min/kg
same,Cmax,[7],45.2 ng/mL
same,AUC/dose,Rattus norvegicus [8],187.8 ng·h/mL
same,Vd,[9],9.3 L/kg
same,Tmax,[10],5 min
same,half-life,[11],4.5 h
same,half-life,[12],2.8 h
same,MRT,[13],47.4 h
same,CL/F,[14],118 mL/min/kg
same,AUC(0-inf),[15],2410 ng·h/mL
same,AUC/dose,Rhesus monkey [16],435.8 ng·h/mL
same,AUC/dose,Rattus norvegicus [17],7.4 ng·h/mL
same,Cmax,[18],49.8 ng/mL
same,AUC(0-inf),[19],25.6 ng·h/mL
same,AUC/dose,Rattus norvegicus [20],19.4 ng·h/mL
same,half-life,[21],2.6 h
same,clearance,[22],38.3 mL/min/kg
same,Tmax,[23],0.5 h
same,half-life,[24],19.1 h
same,AUC(0-inf),[25],185 ng·h/mL
same,CL/F,[26],5060 mL/min/kg
same,AUC/dose,Rhesus monkey [27],0.2 ng·h/mL
same,MRT,[28],26.7 h
same,Cmax,[29],1.7 ng/mL
same,Cmax,[30],136 ng/mL
same,AUC(0-inf),[31],33.9 ng·h/mL
same,half-life,[32],4.4 h
same,Vd,Rattus norvegicus [33],198.7 L/kg
same,Vd,Rhesus monkey [34],197.2 L/kg
same,Tmax,[35],1.83 h
same,Cmax,[36],27.8 ng/mL
same,MRT,[37],3.4 h
same,MRT,[38],6.9 h
same,CL/F,[39],2120 mL/min/kg
same,MRT,[40],6.7 h
